Assay results as given in publication PMC10447463, “Data-mining unveils structure–property–activity correlation of viral infectivity enhancing self-assembling peptides” (Nature Communications, 2023).
Read-outs that look alike come from different tables or passages of the source.

Legend:
[1] = tested on: HIV-1 infection of TZM-bl cells; assay: HIV-1 infectivity enhancement assay, β-galactosidase luminescence; assay type: cell-based; settings: for Rel-EFC: infection relative to EF-C (QCKIKQIINMWQ = 1); for Log10 Infection Rel EFC: log10 of infection relative to EF-C; for Log Infectivity: Fig. S7 panel A (plotted against β-sheet content), Log10 infection relative to EF-C; for Log10 Infection Rel EF-C: HIV-1 infection of TZM-bl cells; for Abs. Inf.: β-galactosidase luminescence; for Infection (FigS19 A): mean of 3 replicates
[2] = assay type: physicochemical; settings: for ThT Cat. / ThT-Fluorescence (categorical): ThT-active if fluorescence at least twice the control
In short: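 Preformed peptide fibrils (1 mg/mL) mixed with 50 µM ThT in PBS, 15 min at RT, fluorescence ex 440/em 488 nm versus PBS blank, triplicates. Zeta potential: peptides at 1 mg/mL in PBS pH 7.4, aged 1 d at RT, diluted in 1 mM KCl, Smoluchowski from electrophoretic mobility.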

[3] = TZM-bl cells, asymmetric std dev errors
[4] = Log10 of infection rate relative to EF-C, Figure 3A source data
[5] = infection rate relative to EF-C, log10, data of Figure 2D
[6] = infection rate relative to EF-C, log10, source data of Figure 2C
[7] = Log10 of infection relative to EF-C, all peptides of FigS16
[8] = absolute HIV-1 infection signal, TZM-bl cells
[9] = ThT fluorescence category, 1 if Rel. ThT >2

Row | Substance | Rel-EFC ([1]; 1.3 µM peptide) | Log10 Infection Rel EFC ([1]; 1.3 µM peptide) | Log Infectivity [1, 3] | Log10 Infection Rel EF-C [1, 4] | Log10 Infection Rel EF-C [1, 5] | Log10 Infection Rel EF-C [1, 6] | Log10 of Rel to EFC (Feb2021) [1, 7] | Tht category (> 2 to blank = +) ([2]; Fig S10 panel D) | ThT Cat, ([2]; ThT category, 1 if Rel. ThT >2) | ThT Cat. ([2]; ThT category, 1 if Rel. ThT >2) | ThT Cat. / ThT-Fluorescence (categorical) [2] | Abs. Inf. [1, 8] | ThT Cat, ([2]; FigS12 panel B) | ThT Cat. [2, 9] | Tht category (> 2 to blank = +) ([2]; FigS12 panel A) | also measured
1 | CKFKQFFNM | 0,41 | -0,39 | -0.3892 | -0.39 | -0.3892 | -0.3892 | -0.39 | 1 (ThT. Cat is 1, if Rel. ThT >2) | 1 (ThT. Cat is 1, if Rel. ThT >2) | 1 (ThT. Cat is 1, if Rel. ThT >2) | 1 (ThT. Cat is 1, if Rel. ThT >2) |  |  |  |  | Abs. Inf. ([1]; absolute infection signal, HIV-1 on TZM-bl cells): 15720; Log10 Inf. rel. to EF-C ([1]; log10 of HIV-1 infection of TZM-bl cells relative to EF-C (EF-C = 0)): -0.3892
2 | CKIKIQINMW | 1,29 | 0,11 | 0.1122 | 0.11 | 0.1122 | 0.1122 | 0.11 | 0 (ThT-inactive (N-Fold <2)) | 0 (ThT-inactive (N-Fold <2)) | 0 (ThT-inactive (N-Fold <2)) | 0 (ThT-inactive (N-Fold <2)) | 7253 |  |  |  | 
3 | CKIKQIIRGD | 0,05 | -1,31 |  | -1.31 | -1.311 | -1.311 |  |  | 0 (ThT-inactive (N-Fold <2)) |  | 0 (ThT-inactive (N-Fold <2)) |  | 0 (ThT-inactive (N-Fold <2)) | 0 (ThT-inactive (N-Fold <2)) |  | 
4 | CQFQFQF | 0,35 | -0,45 | -0.4519 | -0.45 | -0.4519 | -0.4519 | -0.45 | 1 (ThT. Cat is 1, if Rel. ThT >2) | 1 (ThT. Cat is 1, if Rel. ThT >2) |  | 1 (ThT. Cat is 1, if Rel. ThT >2) |  |  | 1 (ThT. Cat is 1, if Rel. ThT >2) |  | 
5 | HHHHKAKAKAKAWWWW | 0,09 | -1,05 | -1.048 | -1.05 | -1.048 | -1.048 |  | 1 (ThT. Cat is 1, if Rel. ThT >2) | 1 (ThT. Cat is 1, if Rel. ThT >2) | 1 (ThT. Cat is 1, if Rel. ThT >2) | 1 (ThT. Cat is 1, if Rel. ThT >2) | 3233 | 1 (ThT. Cat is 1, if Rel. ThT >2) |  | 1 (ThT. Cat is 1, if Rel. ThT >2) | 
6 | HHHHKAKAKAKAYYYY | 0,01 | -1,88 | -1.883 | -1.88 | -1.883 | -1.883 |  | 0 (ThT-inactive (N-Fold <2)) | 0 (ThT-inactive (N-Fold <2)) |  | 0 (ThT-inactive (N-Fold <2)) |  | 0 (ThT-inactive (N-Fold <2)) | 0 (ThT-inactive (N-Fold <2)) | 0 (ThT-inactive (N-Fold <2)) | 
7 | HHHHKIKIKIKIWWWW [TM4] |  |  |  |  |  |  |  |  |  |  |  |  |  |  |  | Infection (FigS19 A) ([1]; 0.26 µM peptide): 15326.66667 RLU/s; Infection (FigS19 A) ([1]; 1.3 µM peptide): 20796.66667 RLU/s; Infection (FigS19 A) ([1]; 6.5 µM peptide): 12450 RLU/s; Absolute Infectivity / RLU /s (Feb2021) ([1]; Feb2021, figures match the 1.3 µM column): 20796.66667 RLU /s; n-fold to virus (Feb2021) ([1]; Feb2021, infectivity relative to virus only): 15.92; Log10 of Rel to EFC (Feb2021) ([1]; Feb2021, log10 of infectivity relative to EF-C): -0.4216; Rel-to EFC (Feb-2021) ([1]; Feb2021, n-fold infectivity relative to EF-C): 0.3788; Rel-to EFC ([1]; Fig S8 panels B, D, infectivity enhancement relative to EF-C): 0.3788; n-fold to virus ([1]; Fig S8 panels B, D, infectivity n-fold relative to virus alone): 15.92; infectivity ([1]; infectivity class (low / medium / high) of each library peptide, main list in c1-c6, same classes repeated in sub-lists of sequences containing the hydrophobicity/charge patterns P+,H0,P+,H0,P0,H0,P0, P+,H0,P0,H0,P0,H0,P0, P+,H0,P0,H0): medium; Log10 Inf. rel. to EF-C ([1]; log10 of HIV-1 infection of TZM-bl cells relative to EF-C, Fig S15 source data, asymmetric std dev errors): -0.4216; Tht rel to blank (42.1851851851852) ([2]; ThT fluorescence relative to blank, blank = 42.1851851851852): 4.025; Tht category (> 1.5 to blank = +) ([2]; category 1/0): 1 (ThT. Cat is 1, if Rel. ThT >2)
8 | HHHHKIKIKIKIYYYY | 0,68 | -0,17 | -0.1685 | -0.17 | -0.1685 | -0.1685 | -0.17 | 1 (ThT. Cat is 1, if Rel. ThT >2) | 1 (ThT. Cat is 1, if Rel. ThT >2) |  | 1 (ThT. Cat is 1, if Rel. ThT >2) |  |  | 1 (ThT. Cat is 1, if Rel. ThT >2) |  | Log10 of Rel to EFC (Feb2021) ([1]; Log10 of infection relative to EF-C, second listing, peptides with TEM 2cat 0): -0.17; Abs. Infection at 0.26 µM ([1]; peptide 0.26 µM, mean of n = 3, Figure 4A): 8963; Infect 1 0.26 µM ([1]; peptide 0.26 µM, replicate 1, absolute infection signal, Figure 4A): 7733.33; Infect 2 0.26 µM ([1]; peptide 0.26 µM, replicate 2, absolute infection signal, Figure 4A): 6433.33; Infect 3 0.26 µM ([1]; peptide 0.26 µM, replicate 3, absolute infection signal, Figure 4A): 12723.33; Abs. Infection at 1.3 µM ([1]; peptide 1.3 µM, mean of n = 3, Figure 4A): 20713.33333; Infect 1 .3 µM ([1]; peptide 1.3 µM, replicate 1, absolute infection signal, Figure 4A): 24723.33; Infect 2 1.3µM ([1]; peptide 1.3 µM, replicate 2, absolute infection signal, Figure 4A): 15203.33; Infect 3 1.3 µM ([1]; peptide 1.3 µM, replicate 3, absolute infection signal, Figure 4A): 22213.33
9 | IKVAVKIKIQINM | 0,5 | -0,3 | -0.3046 | -0.3 | -0.3046 | -0.3046 | -0.3 | 0 (ThT-inactive (N-Fold <2)) | 0 (ThT-inactive (N-Fold <2)) | 0 (ThT-inactive (N-Fold <2)) | 0 (ThT-inactive (N-Fold <2)) | 17920 |  |  |  | 
10 | ILKNLSRSRKIKIQIC | 0,34 | -0,47 | -0.4741 | -0.47 | -0.4741 | -0.4741 | -0.47 | 1 (ThT. Cat is 1, if Rel. ThT >2) | 1 (ThT. Cat is 1, if Rel. ThT >2) |  | 1 (ThT. Cat is 1, if Rel. ThT >2) |  |  | 1 (ThT. Cat is 1, if Rel. ThT >2) |  | 
11 | ILKNLSRSRKIKIQINMWQ | 0,32 | -0,49 | -0.4939 | -0.49 | -0.4939 | -0.4939 | -0.49 | 1 (ThT. Cat is 1, if Rel. ThT >2) | 1 (ThT. Cat is 1, if Rel. ThT >2) | 1 (ThT. Cat is 1, if Rel. ThT >2) | 1 (ThT. Cat is 1, if Rel. ThT >2) | 1797 |  |  |  | 
12 | KAKAKAQA | 0,01 | -2,06 | -2.06 | -2.06 | -2.06 | -2.06 |  | 0 (ThT-inactive (N-Fold <2)) | 0 (ThT-inactive (N-Fold <2)) |  | 0 (ThT-inactive (N-Fold <2)) |  | 0 (ThT-inactive (N-Fold <2)) | 0 (ThT-inactive (N-Fold <2)) | 0 (ThT-inactive (N-Fold <2)) | 
13 | KAKAQANM | 0,01 | -2,05 | -2.046 | -2.05 | -2.046 | -2.046 |  | 0 (ThT-inactive (N-Fold <2)) | 0 (ThT-inactive (N-Fold <2)) |  | 0 (ThT-inactive (N-Fold <2)) |  | 0 (ThT-inactive (N-Fold <2)) | 0 (ThT-inactive (N-Fold <2)) | 0 (ThT-inactive (N-Fold <2)) | Inf. rel. EF-C ([1]; HIV-1 infection relative to EF-C, Fig 23 plot, panels A and B, mean of 3 values): 0.02204; Inf. rel. EF-C ([1]; HIV-1 infection relative to EF-C, Fig 23 plot, single data point, replicate 1): 0.03965; Inf. rel. EF-C ([1]; HIV-1 infection relative to EF-C, Fig 23 plot, single data point, replicate 2): 0.008224; Inf. rel. EF-C ([1]; HIV-1 infection relative to EF-C, Fig 23 plot, single data point, replicate 3): 0.01824; Abs. Inf. / RLU s-1 ([1]; absolute infection rate, peptide 1.3 µM on cells, virus preincubated 10 min with fibrils, read 3 days post infection, mean of triplicate): 497 RLU s-1; Inf. rel. EF-C ([1]; n-fold infection vs virus only, relative to that of EF-C, 1.3 µM peptide): 0.01; Rel. ThT ([2]; n-fold ThT fluorescence vs control (PBS, 10% DMSO), 4 µL 1 mg/mL fibrils + 20 µL 50 µM ThT, 15 min RT, ex 440 / em 488 nm, triplicate): 1.1
